Laboratory results published in US20250313555A1, “2-SUBSTITUTED THIAZOLE AND BENZOTHIAZOLE COMPOSITIONS AND METHODS AS DUX4 INHIBITORS” (ALTAY THERAPEUTICS, INC., priority 2022, published 2025).

How the values were obtained:
Assay type in all cases: cell-based
[1] = Cell cytotoxicity 50 assay (CC50), HEK cells; details: human
Method in brief: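 Starting from a 10 mM drug solution, serial dilutions were made in medium and added onto HEK cells, which were then incubated 72 h at 37 °C. Viability was read as CellTiter-Glo luminescence after 5 min, and CC50 was obtained by curve fitting.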

[2] = Cell cytotoxicity 50 assay (CC50), MB200 cells, cell titer glo; details: human
Method in brief: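 MB200 cells were seeded at 10 k/well in F10 medium with bFGF, 15% FBS and dexamethasone. Cells were exposed to serially diluted compound (from 10 mM stock) in triplicate for 72 h at 37 °C. Viability was read by CellTiter-Glo luminescence and CC50 was fitted.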

DUX4 = biological target: T1, DUX4 (Homo sapiens, UniProt Q9UBX2); test: DUX4 EC50 luciferase reporter protocol in transfected HEK293 cells; details: 6 hr
T1 construct: expressed in transfected cells; host or cells: HEK293
T1 sequence (Q9UBX2 whole entry): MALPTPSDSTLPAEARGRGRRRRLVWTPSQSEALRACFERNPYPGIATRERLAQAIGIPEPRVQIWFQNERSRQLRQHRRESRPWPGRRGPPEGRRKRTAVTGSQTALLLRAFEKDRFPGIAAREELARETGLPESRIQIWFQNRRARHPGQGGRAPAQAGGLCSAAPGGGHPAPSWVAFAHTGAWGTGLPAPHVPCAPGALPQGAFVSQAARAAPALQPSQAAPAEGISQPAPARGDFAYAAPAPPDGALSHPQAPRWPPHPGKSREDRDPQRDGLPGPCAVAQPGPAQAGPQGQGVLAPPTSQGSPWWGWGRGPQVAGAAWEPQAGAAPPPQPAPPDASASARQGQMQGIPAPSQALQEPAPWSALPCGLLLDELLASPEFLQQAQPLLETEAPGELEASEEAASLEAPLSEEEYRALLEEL
Description: EC50 Protocol This example provides a representative protocol for a single well of a 96-well plate. It can be scaled up as necessary for treatment of multiple wells. For negative controls, a well containing reporter DNA, Renilla DNA, and turbofect (without expression vector) were used. For positive controls, wells containing cells that were not treated with any inhibitor were used. They were transfected with the complete DNA lipid complex as set forth below. The DNA-lipid complex for one well of the 96-well plate is prepared by adding to a tube 100 ng of the transfection factor (TF) expression vector, 100 ng of TF reporter DNA, 10 ng of Renilla reporter DNA, […] Turbofect transfection reagent, and […] of the medium without any serum or penicillin/streptomycin. The combination was mixed by gentle flicking of the tube, and the mixture was pipetted into a well of a 96-well plate. The plate was then gently tapped to spread the combination evenly on the bottom of the well. The well was incubated for 30 min. HEK293 cells were grown until 80% confluent in DMEM supplemented with 10% fetal bovine serum, 1% penicillin streptomycin, and 1% amphotericin B. The adherent cells growing on a 10 cm plate were trypsinized with 1 mL of prewarmed trypsin. Once the cells detached from the plate, 10 mL of medium was added, and the cells were strained through a […] cell strainer. The cells were counted using a mixture of 10 mL cell suspension with 10 mL of trypan blue. Once the total number of cells are counted, a dilution of 150 k/mL was prepared. After incubation of the transfection complex was complete, […] of HEK293s (23.25 k total cells) were gently dispensed on top of the wells containing the 25 mL transfection complex, producing a total volume of about 180 mL. The mixture was then incubated for 24 h. To treat cells with each inhibitor, the inhibitors were prepared in the same growth medium. In a deep well block, the regular medium with serum was added to well 1 (135 mL) and to wells 2 through 10 (100 mL). To the first well was added 15 mL of 10 nM inhibitor. The final concentration of the drug in well 1 was 1 nM. The wells were pipeted up and down, and 50 mL was transferred from well 1 to well 2 (1/3 dilution). The well was mixed, and the seriation dilution was repeated with the remaining wells. Once the serial dilution was complete, using a multichannel pipet, 20 mL of each inhibitor were transferred to designated wells in a 96-well plate. […] Before the assay, a sufficient amount of 1× passive lysis buffer was prepared. The luciferase substrate buffer (Promega) was thawed completely and then mixed with the lyophilized luciferase substrate. The stop buffer (Promega) was also completely thawed. (1) Cell lysis: After treatment of the cells was complete, all the cell media is removed by flipping the 96-well plate over and tapping it dry on a dry paper towel. Immediately afterwards, the 1× passive lysis buffer (25 μL) was added. The plates were then placed on a rocker for 15 minutes at medium speed. (2)Measuring luciferase signal: The luciferase substrate solution for all wells was placed in a solution basin. The luciferase substrate solution was then added to every well (100 μL/well) using a multichannel pipette. The total luminescence was then read immediately using a plate reader. (3)Measuring Renilla signal: The “complete stop solution” was prepared in a solution basin by mixing the buffer with the 50× stop solution substrate (Promega) to make the final 1× solution. The complete stop solution was added to each well (50 μL/well) using a multichannel pipette. The total luminescence was then read immediately using a plate reader. Using a spreadsheet (e.g., Excel), the luciferase signal was divided by the renilla signal to get a relative luciferase unit.

| Compound | CC50 at 72 h [1] [µM] | CC50 at 72 h [2] [µM] | EC50 (DUX4) [µM] |
| --- | --- | --- | --- |
| O=C(CCCN1C(=O)CCC1=O)NC1CC(c2nc3ccccc3s2)C1 (stereo not drawn) [Compound 89] | > 10 | > 10 | > 10 |
| O=C(CCCc1cnco1)Nc1ccc(Cc2nc3ccccc3s2)cc1 [Compound 66] | > 10 | > 10 | > 10 |
| CC(=O)NCCCC(=O)Nc1cc(Cl)cc(-c2nc3cc(F)ccc3s2)c1 [Compound 102] | > 10 | > 10 | > 10 |
| O=C(CCC1CCC(=O)N1)Nc1ccc(Cc2nc3ccccc3s2)cc1 (stereo not drawn) [Compound 178] | > 10 | > 10 | > 10 |
| O=C(CCC1CCC(=O)N1)Nc1ccc(-c2nc3ccccc3s2)o1 (stereo not drawn) [Compound 179] | > 10 | > 10 | > 10 |
| CC(=O)NC1CCC(C(=O)Nc2nc3ccccc3s2)C1 (stereo not drawn) [Compound 131] | > 10 | > 10 | > 10 |
| O=C(CCCN1CCCC1=O)NCCCc1nc2ccccc2s1 [Compound 118] | > 10 | > 10 | > 10 |
| CC(=O)NCCCC(=O)N[C@H]1CC[C@H](c2nc3ccccc3s2)C1 [Compound 115] | > 10 | > 10 | > 10 |
| CN(C(=O)CCC1CCC(=O)N1)c1ccc(-c2nc3ccccc3s2)cc1 (stereo not drawn) [Compound 177] | > 10 | > 10 | > 10 |
| C=C(C)NCCC(=C)Nc1cc(C)cc(Cc2nc3ccccc3s2)c1 [Compound 120] | > 10 | > 10 | > 10 |
| CC(=O)N[C@H]1CC[C@@H](C(=O)Nc2nc3ccccc3s2)C1 [Compound 183] | > 10 | > 10 | > 10 |
| CN(C(=O)CCCN1C(=O)CCC1=O)c1ccc(Cc2nc3ccccc3s2)cc1 [Compound 169] | > 10 | > 10 | > 10 |
| CC(=O)CCCCC(=O)Nc1ccc(-c2nccs2)cc1 [Compound 23] | > 10 | > 10 | > 10 |
| CC(=O)NCCCC(=O)NC1CCC(c2nc3ccccc3s2)CC1 (stereo not drawn) [Compound 28] | > 10 | > 10 | > 10 |
| O=C(CCCN1C(=O)CCC1=O)NC1CCC(Cc2nc3ccccc3s2)C1 (stereo not drawn) [Compound 158] | > 10 | > 10 | > 10 |
| CC(=O)NCCCNC(=O)c1ccc(-c2nc3ccccc3s2)o1 [Compound 149] | > 10 | > 10 | > 10 |
| O=C(CCCN1C(=O)CCC1=O)NC1CCCC1c1nc2ccccc2s1 (stereo not drawn) [Compound 92] | > 10 | > 10 | > 10 |
| O=C(CCCN1C(=O)CCC1=O)NCCCc1nc2ccccc2s1 [Compound 91] | > 10 | > 10 | > 10 |
| CC(=O)NCCCC(=O)Nc1nc2ccccc2s1 [Compound 107] | > 10 | > 10 | > 10 |
| O=C(CCCN1CCCC1=O)NC1CCCC1c1nc2ccccc2s1 (stereo not drawn) [Compound 117] | > 10 | > 10 | > 10 |
| O=C(CCCc1cccnc1)N[C@H]1CC[C@H](c2nc3ccccc3s2)CC1 [Compound 164] | > 10 | > 10 | > 10 |
| CC(=O)NCCCC(=O)Nc1nc(-c2ccccc2)cs1 [Compound 126] | > 10 | > 10 | > 10 |

| Compound | CC50 at 72 h [1] [µM] | CC50 at 72 h [2] [µM] | EC50 (DUX4) [µM] |
| --- | --- | --- | --- |
| O=C(CCCc1cccnc1)NC1CCC(c2nc3ccccc3s2)C1 (stereo not drawn) [Compound 157] | > 10 | > 10 | > 10 |
| CC(=O)NCCCC(=O)Nc1cccc(-c2nc3ccccc3s2)c1 [Compound 71] | > 10 | > 10 | > 10 |
| O=C(CCCCN1C(=O)CCC1=O)N[C@H]1CC[C@@H](c2nc3ccccc3s2)CC1 [Compound 151] | > 10 | > 10 | > 10 |
| CC(=O)NCCCc1nc(CCCC(=O)Nc2ccc(-c3nc4cc(F)ccc4s3)cc2)co1 [Compound 138] | 1 to 10 | > 10 | > 10 |
| CN(C(=O)CCCN1C(=O)CCC1=O)c1ccc(-c2nc3cc(F)ccc3s2)cc1 [Compound 144] | > 10 | > 10 | > 10 |
| CC(=O)NCCCNC(=O)c1cc(C#N)cc(-c2nc3cc(F)ccc3s2)c1 [Compound 188] | > 10 | > 10 | > 10 |
| O=C(CCCc1cccnc1)N[C@H]1CC[C@@H](c2nc3ccccc3s2)CC1 [Compound 163] | > 10 | > 10 | > 10 |
| CC(=O)NCCCC(=O)N[C@H]1CC[C@@H](Cc2nc3ccccc3s2)CC1 [Compound 171] | > 10 | > 10 | > 10 |
| CC(=O)NCCCC(=O)N[C@H]1C[C@@H](c2nc3ccccc3s2)C1 [Compound 113] | > 10 | > 10 | > 10 |
| O=C(Cc1ccc(-c2nc3ccccc3s2)cc1)NCCN1CCCC1=O [Compound 119] | > 10 | > 10 | > 10 |
| CC(=O)NCCCC(=O)Nc1cc(Cl)cc(-c2nc3ccccc3s2)c1 [Compound 101] | > 10 | > 10 | > 10 |
| O=C(CCCN1C(=O)CCC1=O)NC1CCC(c2nc3ccccc3s2)C1 (stereo not drawn) [Compound 90] | > 10 | > 10 | > 10 |
| O=C(CCCN1C(=O)CCC1=O)N[C@@H]1CC[C@@H](c2nc3ccccc3s2)C1 [Compound 162] | > 10 | > 10 | > 10 |
| CC(C)(NC(=O)CCCN1CCCC1=O)c1ccc(-c2nc3ccccc3s2)cc1 [Compound 110] | > 10 | > 10 | > 10 |
| O=C(NCCN1C(=O)CCC1=O)c1ccc(-c2nc3ccccc3s2)cc1 [Compound 22] | > 10 | > 10 | > 10 |
| CC(=O)NCCCC(=O)N[C@H]1CC[C@H](Cc2nc3ccccc3s2)CC1 [Compound 172] | > 10 | > 10 | > 10 |
| CC(=O)NC1CCC(C(=O)N[C@H]2CC[C@H](c3nc4ccccc4s3)CC2)C1 (stereo partly drawn) [Compound 134] | > 10 | > 10 | > 10 |
| O=C(CCCN1C(=O)CCC1=O)N[C@H]1C[C@@H](c2nc3ccccc3s2)C1 [Compound 97] | > 10 | > 10 | > 10 |
| CC(=O)NCCCC(=O)Nc1ccc(-c2nccs2)cc1 [Compound 70] | > 10 | > 10 | > 10 |
| CC(=O)NCCCC(=O)N[C@H]1C[C@H](c2nc3ccccc3s2)C1 [Compound 112] | > 10 | > 10 | > 10 |
| CC(=O)N[C@@H]1CC[C@H](C(=O)Nc2nc3ccccc3s2)C1 [Compound 182] | > 10 | > 10 | > 10 |
| CC(=O)N[C@@H]1CC[C@@H](C(=O)Nc2nc3ccccc3s2)C1 [Compound 185] | > 10 | > 10 | > 10 |
